Results from patent publication US20120052017A1, “METHOD FOR PRODUCING CONTRAST AGENT FOR OPTICAL IMAGING” (CANON KABUSHIKI KAISHA, priority 2010, published 2012).

How the values were obtained:
[1] = Composition ratio of DSPC and ICG: ICG dissolved in chloroform; format: physicochemical; conditions: 47.2 mM DSPC in the ICG chloroform solution
Experimental: 0.5, 1 or 2 Molar Equivalents of DSPC was Added to 55 mg of ICG.
3 mL of chloroform was added to each of these ICG-DSPC mixtures. The mixtures were heated at 40° C. for two minutes, and ultrasonic irradiation was performed for one minute. […] These suspensions were filtered with a filter having a pore size of 0.45 μm to remove insoluble matters. Each of the filtrates was diluted 3000-fold with methanol.

[2] = Solubility of ICG in dichloromethane when phospholipid was added; format: physicochemical; conditions: phospholipid not added; inferred by comparison with ICG-methanol solution
Experimental: 2 molar equivalents of a phospholipid was added to 5.5 mg of ICG. As the phospholipid, DSPC or DOPE was used. Each of these ICG-phospholipid mixtures was dissolved in 2 mL of dichloromethane. Controls were brepared by dissolving in 10 G in methanol or dichloromethane. All these 10 G solutions were filtered with a filter having a pore size of 0.2 μm and then diluted 500-fold with dichloromethane.

Which results are given for `CC1(C)C(/C=C/C=C/C=C/C=C2/N(CCCCS(=O)(=O)[O-])c3ccc4ccccc4c3C2(C)C)=[N+](CCCCS(=O)(=O)[O-])c2ccc3ccccc3c21.[Na+]` [ICG, indocyanine green]?
concentration of ICG dissolved [1]: 15700 µM; ICG dissolved in dichloromethane [2]: approximately 0.6 mM
